Tests used:
Assay in all cases: relative viability (nuclei count vs DMSO), 5 days (fraction); higher = more cells survive
[1] = compound: CCn1c(-c2nonc2N)nc2c(C#CC(C)(C)O)ncc(OC[C@H]3CCCNC3)c21
Method in brief: (§1)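 In 1536-well plates, lung cancer cell lines rested overnight at 37 °C before five library-drug doses (not always all listed), √10 apart, were pinned onto vehicle-anchored plates. Nuclei were counted with MetaXpress from 4× Hoechst images taken after 5 days without medium change. Viability compares treated-well with vehicle-well nuclei as a median over plates, and plates needed control CV below 25% plus at least one doubling to pass.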

BAM7 = compound: CCOC1=CC=CC=C1N=NC2=C(NN(C2=O)C3=NC(=CS3)C4=CC=CC=C4)C [BAM7]
Method in brief: as §1

BAM7 + Navitoclax = compound: CCOC1=CC=CC=C1N=NC2=C(NN(C2=O)C3=NC(=CS3)C4=CC=CC=C4)C [BAM7] + CC1(C)CCC(c2ccc(Cl)cc2)=C(CN2CCN(c3ccc(C(=O)NS(=O)(=O)c4ccc(N[C@H](CCN5CCOCC5)CSc5ccccc5)c(S(=O)(=O)C(F)(F)F)c4)cc3)CC2)C1 [Navitoclax] (partner 0.5 µM)
Method in brief: (§2)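 Nuclei were stained with Hoechst during a one-step fixation (final 0.05% Triton X-100, 1% formaldehyde, 1 ug/ml Hoechst) carried out 5 days after dosing, then counted on 4× images. The cells, lung cancer lines in 1536-well plates, had been dosed by pin tool the day after seeding with one drug alone or a fixed anchor-drug dose plus five library-drug doses (not always all listed) in √10 steps. Relative viability is the nuclei count in treated wells divided by that in vehicle wells, and each value is the median of duplicate plates.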

[2] = compound: CCn1c(-c2nonc2N)nc2c(C#CC(C)(C)O)ncc(OC[C@H]3CCCNC3)c21 + Cc1cc(Nc2cc(N3CCN(C)CC3)nc(Sc3ccc(NC(=O)C4CC4)cc3)n2)n[nH]1 [Tozasertib] (partner 0.1 µM)
Method in brief: as §2

UMC-11
relative viability ([1]; 0.01 µM): 0.955
relative viability ([1]; 0.03162 µM): 1.02
relative viability ([1]; 0.1 µM): 0.957
relative viability ([1]; 0.3162 µM): 0.982
relative viability ([1]; 1 µM): 0.943
relative viability (BAM7; 0.5 µM): 1.01
relative viability (BAM7; 5 µM): 1.1
relative viability (BAM7; 15.81 µM): 1.06
relative viability (BAM7; 50 µM): 1.07
relative viability (BAM7 + Navitoclax; first compound 0.5 µM): 0.306
relative viability (BAM7 + Navitoclax; first compound 5 µM): 0.319
relative viability (BAM7 + Navitoclax; first compound 15.81 µM): 0.391
relative viability (BAM7 + Navitoclax; first compound 50 µM): 0.372
relative viability ([2]; first compound 0.01 µM): 0.198
relative viability ([2]; first compound 0.03162 µM): 0.209
relative viability ([2]; first compound 0.1 µM): 0.194
relative viability ([2]; first compound 0.3162 µM): 0.201
relative viability ([2]; first compound 1 µM): 0.197

From the supplement of paper PMC10307832
